Test results taken from patent publication US9572813B2, “Antiviral agent” (SHIONOGI & CO., LTD., priority 2001, dated 2017).
Where a name gives a salt, the structure may show the parent alone.

target: integrase (Human immunodeficiency virus type 1 group M subtype B, UniProt P04585); test: Integrase inhibition assay (microtiter plate strand transfer, substrate DNA/target DNA, anti-digoxigenin ELISA); format: biochemical; settings: concentration of the compound at percent inhibition 50%; 30° C. for 1 hour; OD at 405 nm
Experimental: The inhibitory activities against integrase of the compounds in the present invention have been determined by the assay described below.
(1) Preparation of DNA Solutions.
Substrate DNA and target DNA, which sequences were indicated below, were synthesized by Amersham Pharmacia Biotech and dissolved in KTE buffer (composition: 100 mM KCl, 1 mM EDTA, 10 mM Tris-HCl (pH 7.6)) at concentration of 2 pmol/μl and 0.5 pmol/μl, respectively. The DNA solutions were annealed with each complement by slowly cooling after heating.
(2) Calculations of the Percent Inhibitions (the IC50 Values of Test Compounds)
Streptavidin, obtained from Vector Laboratories, was dissolved in 0.1 M carbonate buffer (composition: 90 mM Na2CO3, 10 mM NaHCO3) at concentration of 40 µg/ml. After coating each well of microtiter plates (obtained from NUNC) with 50 μL of the above solution at 4° C. over night, each well was washed twice with PBS (composition: 13.7 mM NaCl, 0.27 mM KCl, 0.43 mM Na2HPO4, 0.14 mM KH2PO4) and blocked with 300 μl of 1% skim milk in PBS for 30 min. Additionally, each well was washed twice with PBS and added 50 μl of substrate DNA solution (0.04 pmol/μl) diluted to one fiftieth with NTE buffer (composition: 1M NaCl, 10 mM Tris-HCl (pH8.0), 1 mM EDTA). The microtiter plates were kept at room temperature for 30 min. Then, each well was washed twice with PBS and once with H2O.
Subsequently, in the each well prepared above were added 45 μl of the reaction buffer prepared from 12 μl of the buffer (composition: 150 mM MOPS (pH 7.2), 75 mM MnCl2, 50 mM 2-mercaptoethanol, 25% glycerol, 500 μg/ml bovine serum albumin-fraction V), 1 μl of target DNA (5 pmol/μl), and 32 μl of the distilled water. Additionally, 6 μl of either a test compound in DMSO or DMSO for positive control (PC) was mixed with the above reaction buffer, then 9 μl of an integrase solution (30 pmol) was added and mixed well. In the well of negative control (NC) was added 9 μl of the integrase dilution buffer (composition: Hepes (pH7.6), 400 mM potassium glutamate, 1 mM EDTA, 0.1% NP-40, 20% glycerol, 1 mM DTT, 4M urea).
The microtiter plates were incubated at 30° C. for 1 hour. The reaction solution was removed and each well was washed twice with PBS. Subsequently, each well of the microtiter plates was filled with 100 μl of anti-digoxigenin antibody labeled with alkaline phosphatase (Sheep Fab fragment: obtained from Boehringer) and incubated at 30° C. for 1 hour. Then, each well was washed twice with 0.05% Tween20 in PBS and once with PBS. Next, 150 μl of the Alkaline phosphatase reaction buffer (composition: 10 mM p-Nitrophenylphosphate (obtained from Vector Laboratories), 5 mM MgCl2, 100 mM NaCl, 100 mM Tris-HCl (pH 9.5)) was added in each well. The microtiter plates were incubated at 30° C. for 2 hours. The optical density (OD) at 405 nm of each well was measured and the percent inhibition was determined by the following expression. The percent inhibition (%)=100[1−{(C abs.−NC abs.)/(PC abs.−NC abs.)}] • C abs.; the OD of the well of the • NC abs.: the OD of the negative control (NC) • PC abs.: the OD of the positive control (PC)
When the percent inhibition (%) is X % at the concentration of x μg/ml and the percent inhibition (%) is Y % at the concentration of y μg/ml, one of which is more than 50% and the other is less than 50%, IC50 can be determined by the following expression. IC50(μg/ml)=x−{(X−50),(x−y)/(X−Y)}
Compound No. in the Table 1 is the same as compound No. of the above example.

| Molecule | IC50 [µg/mL] |
| --- | --- |
| 3-hydroxy-1-isopropyl-4-(6-phenethylpyrimidine-4-yl)-1,5-dihydropyrrole-2-one [Compound H-7] | 0.68 |

same assay, conditions: concentration of the compound at percent inhibition 50%; 30° C. for 1 hour; OD at 405 nm; read-out: IC50 (converted)

| Molecule | IC50 [nM] |
| --- | --- |
| CC(C)N1CC(C(=O)c2ccc(Cc3ccc(F)cc3)o2)=C(O)C1=O [Compound A-7, 4-[5-(4-Fluorobenzyl)furan-2-carbonyl]-3-hydroxyl-1-isopropyl-1,5-dihydropyrrole-2-one] | 2210 |
| CN1CC(C(=O)c2cccc(Cc3ccc(F)cc3)c2)=C(O)C1=O [Compound A-12-a, 4-[3-(4-Fluorobenzyl)benzoyl]-3-hydroxy-1-methyl-1,5-dihydropyrrole-2-one] | 1010 |
| O=C(C1=C(O)C(=O)N(C2CC2)C1)c1ccc(Cc2ccc(F)cc2)o1 [Compound A-17, 1-Cyclopropyl-4-[5-(4-fluorobenzyl)furan-2-carbonyl]-3-hydroxy-1,5-dihydropyrrole-2-one] | 2340 |
| CCCCN1CC(C(=O)c2ccc(Cc3ccc(F)cc3)o2)=C(O)C1=O [Compound A-17-c, 1-Butyl-4-[5-(4-fluorobenzyl)furan-2-carbonyl]-3-hydroxy-1,5-dihydropyrrole-2-one] | 2630 |
| CN1CC(c2cc(OCc3ccc(F)cc3)ncn2)=C(O)C1=O [Compound B-12-b, 4-[6-(4-Fluorobenzyloxyl)pyrimidine-4-yl]-3-hydroxy-1-methyl-1,5-dihydropyrrole-2-one] | 666 |
| O=c1c(O)c(-c2nnc(Cc3ccc(F)cc3)o2)oc2ccccc12 [Compound C-26, 2-[5-(4-fluorobenzyl)-[1,3,4]-oxadiazole-2-yl]-3-hydroxy-4H-1-benzopyrane-4-one] | 1060 |
| Cc1nc(=O)c(O)c(-c2ccc(Cc3ccc(F)cc3)cn2)[nH]1 [Compound G-7, 6-[5-(4-fluorobenzyl)pyridine-2-yl]-5-hydroxy-2-methyl-1H-pyrimidine-4-one] | 1540 |
| CCN1CCC(C(=O)c2ccc(Cc3ccc(F)cc3)o2)=C(O)C1=O [Compound I-4, 1-ethyl-4-[5-(4-fluorobenzyl)furan-2-carbonyl]-3-hydroxy-5,6-dihydro-1H-pyridine-2-one] | 1460 |
| O=C(c1ccc(Cc2ccc(F)cc2)o1)c1[nH]ccc(=O)c1O [Compound L-4, 2-[5-(4-fluorobenzyl)furan-2-carbonyl]-3-hydroxy-1H-pyridine-4-one] | 1560 |

tested on: not given; test: not given; settings: not given

| melting point [°C] | Molecule |
| --- | --- |
| 158 to 160 | CN1CC(C(=O)c2coc(Cc3ccc(F)cc3)c2)=C(O)C1=O |
| 123 to 124 | COc1ccccc1Cc1ccc(C(=O)C2=C(O)C(=O)N(C(C)C)C2)o1 |
| 165 to 166.5 | CC(C)N1CC(C(=O)c2ccc(Cc3cccc4ccccc34)o2)=C(O)C1=O |
| 98 to 99 | CC(C)Oc1cccc(Cc2ccc(C(=O)C3=C(O)C(=O)N(C(C)C)C3)o2)c1 |
| 112 to 113 | COc1cc(F)ccc1Cc1ccc(C(=O)C2=C(O)C(=O)N(C(C)C)C2)o1 |
| 98 to 100 | CC(C)Oc1cc(F)ccc1Cc1ccc(C(=O)C2=C(O)C(=O)N(C(C)C)C2)o1 |
| 215 to 218 | CC(C)N1CC(C(=O)c2ccc(Cc3ccc(F)cc3C(N)=O)o2)=C(O)C1=O |
| 154 to 157 | CCN1CC(C(=O)c2oc(S(C)(=O)=O)cc2Cc2ccc(F)cc2)=C(O)C1=O |
| 105 to 106 | COCCN1CC(C(=O)c2ccc(Cc3ccc(F)cc3)o2)=C(O)C1=O |
| 200 to 203 | CN1CC(C(=O)c2oc(C3CCS(=O)(=O)CC3)cc2Cc2ccc(F)cc2)=C(O)C1=O |
| 157 to 159 | O=C(C1=C(O)C(=O)N(C2CCCC2)C1)c1ccc(Cc2ccc(F)cc2)o1 |
| 172 | CC(O)CN1CC(C(=O)c2ccc(Cc3ccc(F)cc3)o2)=C(O)C1=O (stereo not shown) |
| 178 to 179 | O=C1NCC(C(=O)c2ccc(Cc3ccc(F)cc3)o2)=C1O |
| 230 to 231 | CN1CC(C(=O)c2ncc(Cc3ccc(F)cc3)s2)=C(O)C1=O |
| 197 to 199 | CC(C)N1CC(C(=O)c2occc2Cc2ccc(F)cc2)=C(O)C1=O |
| 202 to 204 | Cc1oc(C(=O)C2=C(O)C(=O)N(C)C2)c(Cc2ccc(F)cc2)c1C |
| 141 to 143 | CCN1CC(C(=O)c2oc(C(C)(C)C)cc2Cc2ccc(F)cc2)=C(O)C1=O |
| 146 to 147 | CC(C)N1CC(C(=O)c2oc(C(C)(C)C)cc2Cc2ccc(F)cc2)=C(O)C1=O |
| 181 to 183 | CN1CC(C(=O)c2sccc2Cc2ccc(F)cc2)=C(O)C1=O |
| 220 | CC(C)N1CC(C(=O)c2c[nH]c(Cc3ccc(F)cc3)n2)=C(O)C1=O |
| 150 to 151 | CN1CC(C(=O)c2cccn2Cc2ccc(F)cc2)=C(O)C1=O |
| 105 to 106 | CC(C)N1CC(c2ncnc(OCc3ccc(F)cc3)n2)=C(O)C1=O |
| 208 to 210 | CC(C)N1CC(c2ncc(CCc3ccc(F)cc3)s2)=C(O)C1=O |

| melting point [°C] | Molecule |
| --- | --- |
| 177 to 178 | CC(C)N1CC(c2cc(OCc3ccccc3)ncn2)=C(O)C1=O |
| 164 to 166 | COc1ccc(CN2CC(c3ccc(Cc4ccc(F)cc4)cn3)=C(O)C2=O)cc1 |
| 167 to 168 | CN1CC(c2cc(CCc3ccc(F)cc3)ccn2)=C(O)C1=O |
| 167 to 168 | CC(C)N1CC(c2cc(CCc3ccc(F)cc3)ccn2)=C(O)C1=O |
| 205 to 207 | CC(C)N1CC(c2ccc([S+]([O-])c3ccc(F)cc3)cn2)=C(O)C1=O (stereo not shown) |
| 222 to 223 | O=C1C(O)=C(c2cc(CCc3ccccc3)ncn2)CN1Cc1ccccc1 |
| 199 to 200 | CC(C)(C)N1CC(c2cc(CCc3ccccc3)ncn2)=C(O)C1=O |
| 155 to 157 | CC(C)N1CC(c2nccc(OCc3ccccc3)n2)=C(O)C1=O |
| 227 to 230 | CN1CC(c2nccc(OCc3ccc(F)cc3)n2)=C(O)C1=O |
| 158 to 160 | CN1CC(c2ncc(CCc3ccc(F)cc3)cn2)=C(O)C1=O |
| 182 to 184 | CC(C)N1CC(c2cc(CCc3ccccc3)cnn2)=C(O)C1=O |
| 212 | O=c1c(O)c(-c2ncc(Oc3ccccc3)cn2)oc2ccccc12 |
| 227 to 229 | CN(C)C(=O)c1cc(OCc2ccc(F)cc2)c2c(=O)c(O)c(-c3ncnn3C)oc2c1 |
| 253 to 255 | COC(=O)c1cc(OCc2ccc(F)cc2)c2c(=O)c(O)c(-c3ncnn3C)oc2c1 |
| 220 to 223 | Cn1ncnc1-c1oc2c(Br)ccc(OCc3ccc(F)cc3)c2c(=O)c1O |
| 257 to 258 | Cn1ncnc1-c1oc2cc(C(N)=O)cc(OCc3ccc(F)cc3)c2c(=O)c1O |
| 220 to 221 | COCNC(=O)c1cc(OCc2ccc(F)cc2)c2c(=O)c(O)c(-c3ncnn3C)oc2c1 |
| 246 to 247 | CN(C)C(=O)c1ccc(OCc2ccc(F)cc2)c2c(=O)c(O)c(-c3ncnn3C)oc12 |
| 215 to 217 | Cn1ncnc1-c1oc2cccc(OCCc3ccc(F)cc3)c2c(=O)c1O |
| 177 to 179 | COCCNC(=O)c1cc(=O)c(O)c(C(=O)c2ccc(Cc3ccc(F)cc3)o2)o1 |
| 128 to 130 | COCn1ccc(C(=O)c2ccc(Cc3ccc(F)cc3)o2)c(O)c1=O |
| 257 | CN1CC(C(=O)c2ncoc2Cc2ccc(F)cc2)=C(O)C1=O (as salt: salt) |

| Molecule | melting point [°C] |
| --- | --- |
| CC(C)N1CC(C(=O)c2ccc(Cc3ccc(F)cc3)o2)=C(O)C1=O [Compound A-7, 4-[5-(4-Fluorobenzyl)furan-2-carbonyl]-3-hydroxyl-1-isopropyl-1,5-dihydropyrrole-2-one] | 155 to 157 |
| CN1CC(C(=O)c2cccc(Cc3ccc(F)cc3)c2)=C(O)C1=O [Compound A-12-a, 4-[3-(4-Fluorobenzyl)benzoyl]-3-hydroxy-1-methyl-1,5-dihydropyrrole-2-one] | 135 to 137 |
| O=C(C1=C(O)C(=O)N(C2CC2)C1)c1ccc(Cc2ccc(F)cc2)o1 [Compound A-17, 1-Cyclopropyl-4-[5-(4-fluorobenzyl)furan-2-carbonyl]-3-hydroxy-1,5-dihydropyrrole-2-one] | 158 to 159 |
